This test relates to CEM cells HIV-1 protection, formazan growth assay. The experiment in a line: NCI AIDS Antiviral Assay. Particulars: for IC50: measured here: growth of uninfected CEM cells. An outline of the steps:
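Five concentrations of each compound were applied to infected and uninfected human CEM cells. Protection from HIV-1 was judged from growth measured with a soluble formazan assay.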

The source made the active and inactive calls.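 The calls were made as follows: active = compounds giving half or more protection of infected cells from virus-caused growth loss, again on retest; inactive = the rest.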 Bounds are passed on as bounds.

A word on the EC50: it is the concentration needed to bring the measured effect to its halfway point. The term IC50 denotes the midpoint of a concentration-inhibition curve. The low end stands for higher potency, the high end for lower potency. On to `CN(C)Cc1cc(O)c(CN(C)C)cc1O`, for which the EC50 was over 200 µM and the IC50 came to 9.33 µM.

In the case of `COc1cc(CC2Cc3cccc(=O)c(O)c3C(=O)O2)cc(OC)c1OC` (configuration not stated), the EC50 is over 120 µM and the IC50 is 17.4 µM.

With `CN1C(=O)C(O)C[C@@H]1c1ccc(F)cc1` (some centres not stated), the outcome was inactive.

With `O=S(=O)(O)c1cc(N=Nc2c(O)ccc3ccccc23)ccc1/C=C/c1ccc(N=Nc2c(O)ccc3ccccc23)cc1S(=O)(=O)O`, the EC50 was over 50.1 µM and the IC50 is over 50.1 µM.

In the case of `CCOP(=O)(OCC)C(N)C(C)C` (configuration not stated), the EC50 is over 513 µM and the IC50 is over 513 µM.

With `CC(=O)/C(=C/c1ccc(Cl)cc1)C(=O)c1ccccc1`, the EC50 is over 66.1 µM and the IC50 was 11.7 µM.

With `O=P(Nc1cccc(Cl)c1)(Oc1ccccc1)N(CCCl)CCCl` (configuration not stated), the EC50 is over 17.8 µM and the IC50 worked out at 6.46 µM.

For the molecule `CC(=O)NNc1nc(C)c(C(=O)NNC(=O)C(=O)Nc2c([N+](=O)[O-])ccc(C)c2C)s1`, the EC50 is over 209 µM and the IC50 was found to be 107 µM.

With `Cc1cc2c(-c3ccccc3)c3cc(C)c(N)cc3nc2cc1N`, the EC50 is over 200 µM and the IC50 is 2.75 µM.

In the case of `CCCCN(C=O)CCc1ccccc1`, the EC50 was over 1230 µM and the IC50 was over 1230 µM.

As for `O=C1CC(=O)NC(=NNS(=O)(=O)c2ccccc2)N1`, the EC50 was over 200 µM and the IC50 is over 200 µM.

Turning to `CC(=O)OCC1OC(n2c(C)c(N=Nc3ccccc3)c(C)c(C#N)c2=S)C(OC(C)=O)C(OC(C)=O)C1OC(C)=O` (configuration not stated), the EC50 was over 200 µM and the IC50 is over 200 µM.

Turning to `CN1CCN(c2nc3c(c(=O)n(C)c(=O)n3C)n2C)CC1`, the EC50 is over 759 µM and the IC50 was over 759 µM.

For the molecule `CCCc1cc(=O)oc2c3c(c4c(c12)OC(C)(C)C(O)C4=O)O[C@@H](C)[C@H](C)[C@@H]3O` (some centres not stated), the EC50 is over 200 µM and the concentration for half-maximal inhibition (IC50) was determined as 85.1 µM.

Take `[N-]=[N+]=NC1C2CC3CC(C2)CC1C3` (configuration not stated): the EC50 is over 77.6 µM and the IC50 was over 77.6 µM.

For the molecule `Cc1ccc2ccccc2c1CC1S(=O)(=O)OCCOS1(=O)=O`, the EC50 is over 200 µM and the IC50 worked out at 115 µM.

Take `CC(C)=CC1C(C(=O)N2CCCCCC2)C1(C)C` (configuration not stated): the EC50 was over 200 µM and the IC50 is over 200 µM.

For the molecule `CC1(C)OC(=S)N(c2ccccc2)C12C=Cc1ccccc1O2` (configuration not stated), the EC50 is over 200 µM and the IC50 is 35.5 µM.

Turning to `COc1cc2c(cc1OCCN1C(=O)c3cccc4cccc(c34)C1=O)N=C[C@@H]1CCCN1C2=O`, the EC50 was over 41.7 µM and the IC50 worked out at 5.5 µM.

Turning to `Cn1cnc(N2CCCC2)c(C#N)c1=O`, the EC50 is over 200 µM and the IC50 was over 200 µM.

Regarding `O=C(NC(=O)c1ccccc1)OC(c1ccccc1)C1CO1` (configuration not stated), the EC50 was over 200 µM and the IC50 is over 200 µM.

As to `COc1ccc(CNc2nc3ccccc3nc2C(=O)O)cc1OC`, the EC50 was over 200 µM and the IC50 is 95.5 µM.

Take `CC(=O)[O-].CC(=O)[O-].O=C(N/N=C/c1cc(Cl)cc(Cl)c1O)c1ccncc1.[Cu+2]`: the result was inactive.

As to `Cc1ccc(N=Nc2c(N)nn3cc4c(nc23)CCC4)cc1`, the EC50 was over 200 µM and the IC50 was over 200 µM.

Turning to `COC1(OC)C2(Cl)C(Cl)=C(Cl)C1(Cl)C1COCC12` (configuration not stated), the result was inactive.

Take `C=CC1CC1(CO)COc1cc(Cl)nc(N)n1` (configuration not stated): the EC50 is over 200 µM and the IC50 came to 141 µM.

Regarding `O=C(NCCCNC(=O)c1ccccc1O)c1ccccc1O`, the EC50 is over 200 µM and the IC50 was 69.2 µM.

Take `Cc1cc(Cl)cc2c1S/C(=C1\Sc3c(C)cc(Cl)cc3C1=O)C2=O`: the EC50 was over 200 µM and the 50% inhibitory concentration (IC50) is over 200 µM.

For the molecule `COc1cc2c(cc1OC)-c1cc3ccc(OC)c(OC)c3c[n+]1CC2`, the EC50 is over 324 µM and the IC50 worked out at 145 µM.

`O=C1CCCN1CC#CCN1C[C@@H]2C3CCC(C3)[C@@H]2C1`: the EC50 was over 200 µM and the IC50 worked out at 170 µM.

Consider `CC1(C)O[C@H]2[C@H](O)C[C@](O)(CO)C[C@H]2O1`, for which the result was inactive.

Take `c1ccc(COc2ccc3[nH]c4c(ncc5[nH]c6ccccc6c54)c3c2)cc1`: the result was inactive.

As for `CCn1c(-c2ccccc2)cs/c1=N\C(P(=O)(O)O)P(=O)(O)O`, the EC50 was over 200 µM and the IC50 is over 200 µM.

Take `CN(C)CCC(/C=C/c1ccccc1)=N\Nc1ccc(Cl)cc1`: the EC50 is over 100 µM and the IC50 was found to be 10.7 µM.

In the case of `CN(C)C(=S)/N=C(\N)N(C)C`, the outcome was inactive.

As to `N#Cc1sc2c(c1OC(=O)c1ccc(Cl)cc1Cl)c(=O)n(-c1ccccc1)c(=S)n2-c1ccccc1`, the EC50 is over 200 µM and the half-maximal inhibitory concentration (IC50) amounted to 1.23 µM.

Take `COc1cccc2c1C(=O)c1c(O)c3c(c(O)c1C2=O)C[C@@](O)(C(C)=O)C[C@@H]3OC1CC(N)C(O)C(C)O1` (some centres not stated): the EC50 was over 4.47 µM and the IC50 was 0.0038 µM.

As to `CCOC(=O)N1CCN(c2c(N)nc(C)[nH]c2=O)CC1`, the EC50 is over 200 µM and the IC50 is over 200 µM.

Turning to `CCc1c(Cc2ccccc2)n(COCCCO[Si](C)(C)C(C)(C)C)c(=O)[nH]c1=O`, the EC50 is over 200 µM and the IC50 turned out to be 10 µM.

Regarding `O=C1CCCc2ccc([N+](=O)[O-])c(O)c21`, the result was inactive.

Regarding `CCN(CC)C(=S)SS(=O)(=O)c1cccc(N)c1`, the EC50 was over 200 µM and the IC50 is over 200 µM.

For the molecule `O=c1[nH]c(=O)n(C2CC(O)C(CO)O2)cc1NN=NCCCc1ccccc1` (configuration not stated), the EC50 was over 200 µM and the IC50 was over 200 µM.

Regarding `Cc1cc(N=Nc2c(C)ccc3ncccc23)ccc1N`, the EC50 is over 200 µM and the IC50 was 0.603 µM.

`O=C(NCCc1c(-c2ccccc2)[nH]c2ccccc12)C(F)(F)C(F)(F)F`: the EC50 is over 200 µM and the IC50 came to 25.7 µM.

On to `COc1cc2nc3n(c2cc1OC)C(O)c1c(Cl)nc(SC)nc1S3` (configuration not stated), for which the EC50 is over 200 µM and the half-inhibitory concentration (IC50) was 7.76 µM.

With `Cc1ccc(N/N=c2/ccc(=O)/c(=N\Nc3ccc(S(=O)(=O)O)cc3)c2=O)c(C)c1`, the EC50 is over 200 µM and the IC50 was over 200 µM.

For the molecule `N#CCCN(CCC#N)c1ccc(/C=C2\N=C(c3ccccc3)N(c3ccc(F)cc3)C2=O)cc1`, the EC50 was over 200 µM and the IC50 is over 200 µM.

Take `COc1cc(-c2cc(=O)c3ccc(O)cc3o2)cc(OC)c1OC`: the EC50 was over 200 µM and the IC50 is over 200 µM.

Consider `Oc1ccc[n+](Cc2ccccc2)c1`, for which the EC50 was over 200 µM and the IC50 is over 200 µM.

As for `N#C/C(=C/NC(=S)N=Nc1c(O)[nH]c2ccccc12)C(N)=O`, the EC50 was over 200 µM and the IC50 is 195 µM.

Consider `O=C(NC(=O)c1cc(-c2ccccc2)n[nH]1)c1ccccc1`, for which the EC50 was over 200 µM and the IC50 came out at 123 µM.

Consider `O=c1cnn2c(n1)OC1C(O)C(CO)OC12` (configuration not stated), for which the EC50 is over 200 µM and the IC50 turned out to be 19.1 µM.

Regarding `O=C1C=C(N2CCN(CCO)CC2)C(=O)c2c(N3CCN(CCO)CC3)cc(N3CCN(CCO)CC3)nc21`, the EC50 was over 158 µM and the IC50 is over 158 µM.

For `C=CCCCn1ccc2ccccc21`, the result was inactive.

Regarding `COc1cccc(NC(=O)/C(CC(=O)CC(c2ccccc2)c2c(O)c3ccccc3oc2=O)=N\NC(C)(C)C)c1OC` (configuration not stated), the EC50 is over 85.1 µM and the IC50 is 70.8 µM.

Regarding `CC1(C)OC2COC3([C@@H]4OC(C)(C)O[C@@H]4CO)OC(C)(C)OC3C2O1` (some centres not stated), the EC50 was over 200 µM and the IC50 is over 200 µM.

Regarding `Cc1nnc2sc(NN)nn12`, the EC50 is over 200 µM and the IC50 was 107 µM.

Turning to `CNC(=O)OCC1=CC(=O)C(C)=CC1=O`, the EC50 is over 60.3 µM and the concentration for half-maximal inhibition (IC50) stood at 5.5 µM.

With `CSS(C)(=O)=O`, the EC50 is over 1120 µM and the IC50 is 53.7 µM.

Regarding `NNC1=N/C(=C\c2ccccc2O)C(=O)N1`, the EC50 is over 200 µM and the IC50 was 35.5 µM.

As to `CC(NCc1c(O)ccc2c(-c3ccccc3)cc(=O)oc12)C(=O)O` (configuration not stated), the EC50 was over 200 µM and the IC50 was over 200 µM.

Take `CC1OC(OCC2OC(Oc3c(-c4ccc(O)cc4)oc4cc(OC5OC(C)C(O)C(O)C5O)cc(O)c4c3=O)C(O)C(O)C2O)C(O)C(O)C1O` (configuration not stated): the result was active.

Turning to `N#C/C(C(=S)Nc1ccccc1)=C(/N)N1CCCC1`, the EC50 is over 200 µM and the IC50 is 105 µM.

Consider `COc1cccc(CCCCCCCC(=O)O)c1`, for which the EC50 is over 200 µM and the IC50 is over 200 µM.

Regarding `CCOC(=O)c1ccc(C(=O)C(C(C)=O)C(=O)OC(C)(C)C)n1C` (configuration not stated), the EC50 was 43.7 µM and the IC50 worked out at 74.1 µM.

For the molecule `COc1ccc(/C=N\N2C(=O)Cc3ccccc32)cc1`, the EC50 is over 37.2 µM and the IC50 is over 37.2 µM.

`CC1=CCC(O)C=CC(C)C(O)C(C)C=C(C)C(=O)c2c(O)c(C)cc3c2C(=O)C(N)=C(NC(=O)/C=C\C=C/C=CC(C)C(O)CC1=O)C3=O` (configuration not stated): the EC50 was over 182 µM and the IC50 is 97.7 µM.

With `O=C1/C(=C\c2cccc(Oc3ccccc3)c2)SC(c2ccccc2)N1c1ccc(Cl)cc1` (configuration not stated), the EC50 was over 20 µM and the IC50 came to 1.29 µM.

In the case of `CCOC(C[C@H](O)[C@H]1COC(=S)S1)OCC`, the concentration giving a half-maximal response (EC50) was 135 µM and the IC50 is over 200 µM.

Take `Cn1cc(N)cc1C(=O)Nc1cc(C(=O)Nc2cc(S(=O)(=O)O)c3cc(S(=O)(=O)O)cc(S(=O)(=O)O)c3c2)n(C)c1`: the EC50 is 53.7 µM and the IC50 turned out to be 339 µM.

Take `Cc1cc2c(cc1Cl)SSc1cc(Cl)c(C)cc1S(=O)(=O)Nc1nc(N)nn1C(O)n1nc(N)nc1NS2(=O)=O`: the EC50 is 89.1 µM and the IC50 was over 100 µM.

Consider `O=C1C=C2CCN(C(=O)c3ccccc3)CC2O1` (configuration not stated), for which the EC50 was over 200 µM and the half-inhibitory concentration (IC50) is over 200 µM.

In the case of `CC1(C)/C(=N\O)C2(OS(=O)(=O)C(F)(F)F)CCC1C2` (configuration not stated), the EC50 is over 200 µM and the IC50 was over 200 µM.

(Values after PubChem BioAssay AID179 (DTP/NCI, 2004).)
